Laboratory results taken from patent US9409952B2, “Peptide-compound cyclization method” (Chugai Seiyaku Kabushiki Kaisha, priority 2011, dated 2016).
Read-outs that look alike come from different tables or passages of the source. Starred links: 1 amine or outer side, 2 acyl side, 3 side chain; linkers in the order of their positions; H or OH if unused. Positions of bridges follow the written chain, without caps; N, C: chain ends. Non-standard residues stand in square brackets, D forms with d. Residues, ends and D or L forms follow the SMILES beside them. ξ: configuration not given here. *: point of attachment. NMeF = CN[C@@H](Cc1ccccc1)C(=O)O; NMeGABA = CN(CCCC(=O)[*:2])[*:1]; NMeI = CC[C@H](C)[C@H](NC)C(=O)O; NMeβAla = CN(CCC(=O)[*:2])[*:1]; NMeL = CN[C@@H](CC(C)C)C(=O)O; ξNMeF = CNC(Cc1ccccc1)C(=O)O; NMeV = CN[C@H](C(=O)O)C(C)C; NMeA = CN[C@@H](C)C(=O)O; Piperidide = C1CCN(*)CC1; dNMeA = CN[C@H](C)C(=O)O; Sar = CNCC(=O)O; tBu = CC(C)(C)*

Tests used:
[1] = Metabolic stability in human hepatic microsome; assay type: in vitro ADME; conditions: microsomes
[2] = PAMPA (parallel artificial membrane permeability assay); assay type: in vitro ADME; conditions: PAMPA
Outline: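 Artificial membrane was 10% (w/v) egg lecithin plus 0.5% (w/v) cholesterol in dodecane on a PVDF filter. A 10 mM DMSO stock was added at 0.5% (v/v) to donor buffer (50 mM MOPSO, pH 6.5, 5.0% glycocholic acid). After 18 h at 37 °C, LC/MS or LC/UV gave donor and acceptor levels for Pe.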

[3] = pH 7.4, human hepatic microsome, NADPH(+), read-out: CL NADPH(+)
[4] = membrane permeation rate (Pe), 50 mM MOPSO buffer pH 6.5 with 5.0% glycocholic acid, 37° C., 18 hours, read-out: iPAMPA Pe

Compound | microsomal CLint at 1 uM ([1]; human, pH 7.4, CL NADPH(+)) [µL/min/mg] | Papp at 18 hours, 50 µM ([2]; pH 6.5) [×10⁻⁶ cm/s] | microsomal CLint at 1 uM [1, 3] [µL/min/mg] | Papp at 18 hours, 50 µM [2, 4] [×10⁻⁶ cm/s]
CC[C@H](C)[C@H]1C(=O)NCC(=O)N(C)[C@@H](Cc2ccccc2)C(=O)N[C@@H]([C@@H](C)O)C(=O)N(C)[C@@H](C)C(=O)N[C@@H](CC(C)C)C(=O)N[C@H](C(=O)N2CCCCC2)CC(=O)N(C)[C@H](C)C(=O)N(C)[C@@H](C)C(=O)N[C@@H](Cc2ccccc2)C(=O)N(C)[C@@H](CC(C)C)C(=O)N[C@@H](C(C)C)C(=O)N1C [DP-93] ([dNMeA][NMeA]F[NMeL]V[NMeI]G[NMeF]T[NMeA]LD-Piperidide; lactam N-12) | 17 | 22 | – | –
CC[C@H](C)[C@H]1C(=O)N[C@H](C(=O)N2CCCCC2)CC(=O)N(C)[C@H](C)C(=O)N[C@@H](CC(C)C)C(=O)N(C)[C@@H](Cc2ccccc2)C(=O)N(C)[C@@H](CC(C)C)C(=O)NCC(=O)N(C)[C@@H](C(C)C)C(=O)N(C)[C@@H](Cc2ccccc2)C(=O)N(C)[C@@H](C)C(=O)N[C@@H]([C@@H](C)O)C(=O)N(C)[C@@H](C)C(=O)N1C [DP-94] ([dNMeA]L[NMeF][NMeL]G[NMeV][NMeF][NMeA]T[NMeA][NMeI]D-Piperidide; lactam N-12) | 17 | 28 | – | –
CC(C)C[C@@H]1NC(=O)[C@H](CC(C)C)N(C)C(=O)[C@H](C)NC(=O)[C@H](C(C)C)N(C)C(=O)[C@H](Cc2ccccc2)NC(=O)CN(C)C(=O)[C@H]([C@@H](C)O)NC(=O)[C@H](C)N(C)C(=O)[C@H](CC(C)C)N(C)C(=O)[C@@H](C)NC(=O)C[C@@H](C(=O)N2CCCCC2)NC1=O [DP-95] ([dA][NMeL][NMeA]T[Sar]F[NMeV]A[NMeL]LD-Piperidide; lactam N-11) | – | – | 19 | 7.3
CC[C@H](C)[C@H]1C(=O)N(C)[C@@H](CC(C)C)C(=O)N[C@H](C(=O)N2CCCCC2)CC(=O)N[C@H](C)C(=O)N(C)[C@@H](CC(C)C)C(=O)N[C@@H](CC(C)C)C(=O)N(C)[C@@H](Cc2ccccc2)C(=O)N[C@@H](COC(C)(C)C)C(=O)N(C)[C@@H](Cc2ccccc2)C(=O)N[C@@H]([C@@H](C)O)C(=O)N(C)[C@@H](C)C(=O)N1C [DP-96] ([dA][NMeL]L[NMeF]S(tBu)[NMeF]T[NMeA][NMeI][NMeL]D-Piperidide; lactam N-11) | 51 | 13 | – | –
CC[C@H](C)[C@H]1C(=O)N[C@@H]([C@@H](C)O)C(=O)N(C)CC(=O)N[C@H](C(=O)N2CCCCC2)CC(=O)N[C@H](C)C(=O)N[C@@H](CC(C)C)C(=O)N(C)[C@@H](CC(C)C)C(=O)N(C)[C@@H](Cc2ccccc2)C(=O)N[C@@H](C)C(=O)N(C)[C@@H](Cc2ccccc2)C(=O)N(C)[C@@H](CC(C)C)C(=O)N1C [DP-97] ([dA]L[NMeL][NMeF]A[NMeF][NMeL][NMeI]T[Sar]D-Piperidide; lactam N-11) | 72 | 27 | – | –
CC[C@H](C)[C@H]1C(=O)N(C)[C@@H](C(C)C)C(=O)N(C)CC(=O)N[C@@H]([C@@H](C)O)C(=O)N[C@H](C(=O)N2CCCCC2)CC(=O)N[C@H](C)C(=O)N(C)[C@@H](C)C(=O)N(C)[C@@H](CC(C)C)C(=O)N[C@@H](CC(C)C)C(=O)N(C)[C@@H](Cc2ccccc2)C(=O)N[C@@H](Cc2ccccc2)C(=O)N1C [DP-98] ([dA][NMeA][NMeL]L[NMeF]F[NMeI][NMeV][Sar]TD-Piperidide; lactam N-11) | – | – | 27 | 26
CC[C@H](C)[C@H]1C(=O)N(C)[C@@H](CC(C)C)C(=O)N(C)[C@@H](Cc2ccccc2)C(=O)N[C@@H]([C@@H](C)O)C(=O)N(C)[C@@H](Cc2ccccc2)C(=O)N(C)[C@@H](CC(C)C)C(=O)N(C)[C@@H](C)C(=O)N[C@H](C(=O)N2CCCCC2)CC(=O)N[C@H](C)C(=O)N[C@@H](C)C(=O)N(C)[C@@H](CC(C)C)C(=O)N1C [DP-99] ([dA]A[NMeL][NMeI][NMeL][NMeF]T[NMeF][NMeL][NMeA]D-Piperidide; lactam N-11) | 52 | 56 | – | –
CC[C@H](C)[C@H]1C(=O)N(C)[C@@H](CC(C)C)C(=O)N[C@H](C(=O)N2CCCCC2)CC(=O)N(C)[C@@H](C)C(=O)N(C)[C@@H](CC(C)C)C(=O)N[C@@H](CC(C)C)C(=O)N(C)[C@@H](Cc2ccccc2)C(=O)N[C@@H](COC(C)(C)C)C(=O)N(C)[C@@H](Cc2ccccc2)C(=O)N[C@@H]([C@@H](C)O)C(=O)N(C)[C@@H](C)C(=O)N1C [DP-100] ([NMeA][NMeL]L[NMeF]S(tBu)[NMeF]T[NMeA][NMeI][NMeL]D-Piperidide; lactam N-11) | 80 | 1.7 | – | –
CC(C)C[C@@H]1NC(=O)CN(C)C(=O)[C@H](C(C)C)N(C)C(=O)[C@H](C)NC(=O)[C@H]([C@@H](C)O)NC(=O)[C@H](CC(C)C)N(C)C(=O)[C@H](C)N(C)C(=O)[C@H](CC(C)C)N(C)C(=O)[C@H](Cc2ccccc2)NC(=O)CCN(C)C(=O)C[C@@H](C(=O)N2CCCCC2)NC1=O [DP-102] ([NMeβAla]F[NMeL][NMeA][NMeL]TA[NMeV][Sar]LD-Piperidide; lactam N-11) | 5 | 1.8 | – | –
CC[C@H](C)[C@H]1C(=O)N[C@@H]([C@@H](C)O)C(=O)N(C)[C@@H](C)C(=O)N(C)[C@@H](CC(C)C)C(=O)N[C@H](C(=O)N2CCCCC2)CC(=O)N(C)CCC(=O)N(C)[C@@H](CC(C)C)C(=O)N[C@@H](CC(C)C)C(=O)N(C)[C@@H](Cc2ccccc2)C(=O)N[C@@H](COC(C)(C)C)C(=O)N(C)C(Cc2ccccc2)C(=O)N1C (stereo partly drawn) [DP-103] ([NMeβAla][NMeL]L[NMeF]S(tBu)[ξNMeF][NMeI]T[NMeA][NMeL]D-Piperidide; lactam N-11) | 73 | 19 | – | –
CC[C@H](C)[C@H]1C(=O)N(C)[C@@H](Cc2ccccc2)C(=O)N[C@@H](CC(C)C)C(=O)N[C@H](C(=O)N2CCCCC2)CC(=O)N(C)CCC(=O)N(C)[C@@H](CC(C)C)C(=O)N[C@@H]([C@@H](C)O)C(=O)N(C)[C@@H](Cc2ccccc2)C(=O)N(C)[C@@H](CC(C)C)C(=O)N[C@@H](C)C(=O)N(C)[C@@H](CC(C)C)C(=O)N1C [DP-104] ([NMeβAla][NMeL]T[NMeF][NMeL]A[NMeL][NMeI][NMeF]LD-Piperidide; lactam N-11) | 29 | 6.7 | – | –
CC[C@H](C)[C@H]1C(=O)N[C@@H]([C@@H](C)O)C(=O)N(C)CC(=O)N(C)[C@@H](CC(C)C)C(=O)N[C@H](C(=O)N2CCCCC2)CC(=O)N(C)[C@H](C)C(=O)N[C@@H](CC(C)C)C(=O)N(C)[C@@H](CC(C)C)C(=O)N(C)[C@@H](Cc2ccccc2)C(=O)N[C@@H](C)C(=O)N(C)[C@@H](Cc2ccccc2)C(=O)N1C [DP-105] ([dNMeA]L[NMeL][NMeF]A[NMeF][NMeI]T[Sar][NMeL]D-Piperidide; lactam N-11) | 60 | 45 | – | –
CC[C@H](C)[C@H]1C(=O)N(C)[C@@H](CC(C)C)C(=O)N[C@@H]([C@@H](C)O)C(=O)N2CCC[C@H]2C(=O)N[C@@H](Cc2ccccc2)C(=O)N[C@H](C(=O)N2CCCCC2)CC(=O)N(C)CC(=O)N(C)[C@@H](CC(C)C)C(=O)N[C@@H](Cc2ccccc2)C(=O)N[C@@H](CC(C)C)C(=O)NCC(=O)N1C [DP-106] ([Sar][NMeL]FLG[NMeI][NMeL]TPFD-Piperidide; lactam N-11) | 155 | 34 | – | –
CC[C@H](C)[C@@H]1NC(=O)[C@H](C)N(C)C(=O)[C@H](CC(C)C)NC(=O)[C@H]([C@@H](C)O)NC(=O)CNC(=O)[C@@H]2CCCN2C(=O)[C@H](COC(C)(C)C)NC(=O)[C@H](CC(C)C)N(C)C(=O)[C@H](Cc2ccccc2)NC(=O)CCCN(C)C(=O)C[C@@H](C(=O)N2CCCCC2)NC(=O)[C@H](Cc2ccccc2)N(C)C1=O [DP-107] ([NMeGABA]F[NMeL]S(tBu)PGTL[NMeA]I[NMeF]D-Piperidide; lactam N-12) | – | – | 14 | 23
CC[C@H](C)[C@@H]1NC(=O)[C@H](C)N(C)C(=O)[C@H]([C@@H](C)O)NC(=O)[C@H](Cc2ccccc2)N(C)C(=O)CNC(=O)[C@H](CC(C)C)N(C)C(=O)[C@H](C(C)C)NC(=O)[C@H](CC(C)C)N(C)C(=O)[C@H](Cc2ccccc2)NC(=O)[C@H](C)N(C)C(=O)CCCN(C)C(=O)C[C@@H](C(=O)N2CCCCC2)NC1=O [DP-108] ([NMeGABA][NMeA]F[NMeL]V[NMeL]G[NMeF]T[NMeA]ID-Piperidide; lactam N-12) | – | – | 48 | 22
CC[C@H](C)[C@@H]1NC(=O)[C@H](Cc2ccccc2)N(C)C(=O)[C@@H]2CCCN2C(=O)[C@H]([C@@H](C)O)NC(=O)[C@H](CC(C)C)NC(=O)[C@H](C)N(C)C(=O)CCCN(C)C(=O)C[C@@H](C(=O)N2CCCCC2)NC(=O)[C@H](CC(C)C)NC(=O)[C@H](CC(C)C)N(C)C(=O)CNC(=O)[C@H](Cc2ccccc2)N(C)C1=O [DP-109] ([NMeGABA][NMeA]LTP[NMeF]I[NMeF]G[NMeL]LD-Piperidide; lactam N-12) | – | – | 36 | 30
CC[C@H](C)[C@@H]1NC(=O)[C@H](Cc2ccccc2)N(C)C(=O)[C@@H](C)NC(=O)C[C@@H](C(=O)N2CCCCC2)NC(=O)[C@H](C(C)C)N(C)C(=O)[C@H](Cc2ccccc2)N(C)C(=O)[C@H](COC(C)(C)C)NC(=O)[C@H](CC(C)C)N(C)C(=O)CN(C)C(=O)[C@H]([C@@H](C)O)NC(=O)[C@H](CC(C)C)N(C)C1=O [DP-110] ([dA][NMeF]I[NMeL]T[Sar][NMeL]S(tBu)[NMeF][NMeV]D-Piperidide; lactam N-11) | – | – | 36 | 30
CC(C)C[C@@H]1NC(=O)[C@H](CC(C)C)NC(=O)[C@H](C)N(C)C(=O)C[C@@H](C(=O)N2CCCCC2)NC(=O)[C@H](C(C)C)N(C)C(=O)[C@H](CC(C)C)NC(=O)[C@H](Cc2ccccc2)NC(=O)[C@H]([C@@H](C)O)NC(=O)CN(C)C(=O)[C@H](CC(C)C)NC(=O)[C@H](C)NC1=O [DP-111] ([NMeA]LLAL[Sar]TFL[NMeV]D-Piperidide; lactam N-11) | 17 | 12 | – | –
